Experimental data as given in patent US20220031800A1, “PEPTIDES FOR TREATING NON-EXUDATIVE MACULAR DEGENERATION AND OTHER DISORDERS OF THE EYE” (Allegro Pharmaceuticals, LLC, priority 2019, published 2022).
Several values for one entry are separate records, joined by “and”; a condition that tells them apart may be missing. Identical values can stand only once. Square brackets hold non-standard residues; d marks the D form. Peptide text beside a SMILES is read from it. Cya = N[C@@H](CS(=O)(=O)O)C(=O)O

Test system: study eye of subjects with intermediate non-exudative AMD
Assay: SD-OCT Analysis 2 (thickness, volume, map coverage of retinal layers)
Format: in vivo, human
Conditions: change from baseline at Week 32
Description: Numerous study assessments were conducted at various time points throughout the study. Included among these study assessments were; refractive eye examinations, determinations of BCVA AND low-luminance BCVA, Lanthony D-15 color vision test, measurement of intraocular pressure (IOP), Indirect ophthalmoscopy/dilated fundus examinations and spectral-domain optical coherence tomography (SD-OCT). Also, blood and saliva samples were obtained from each subject for genetic analysis. The above-listed study assessments were performed at the time points indicated in Table 1, below: The OCT scans were analyzed by two (2) unrelated experts. In Analysis #2, the OCT images of study eyes were analyzed to determine mean thickness and mean volume of numerous retinal subfields and layer segments at baseline and at Week 12 for sham eyes and at baseline and at Week 32 for risuteganib eyes, to document any significant differences between groups of eyes based on baseline measurements or changes from baseline in those measurements. In addition to the quantitative analysis of OCT images, OCT Analysis #2 included qualitative assessment of the OCT images to identify GA, pseudodrusen, and disruption of the ELM and EZ layers. FIGS. 9A, 9B and 9C illustrate the level of varying pathology within the ELM based on quantitative mapping that were also assessed, with FIG. 9A (left) showing no ELM disruption, FIG. 9B (center) showing segmental disruption, and FIG. 9C showing diffuse disruption.

[1] = risuteganib nonresponder eyes, n = 12
[2] = risuteganib responder eyes, n = 12
[3] = risuteganib super-responder eyes, n = 8

**Q.** What does the source list for `C[C@@H](O)[C@H](NC(=O)[C@H](CS(=O)(=O)O)NC(=O)CNC(=O)[C@H](CCCNC(=N)N)NC(=O)CN)C(=O)N1CCC[C@H]1C(=O)O` [risuteganib, Glycyl-L-arginylglycyl-3-sulfo-L-alanyl-L-threonyl-L-proline] (H-GRG[Cya]TP-OH)?
**A.** Change in mean thickness, Inner retina mid subfield [1]: 2.274 μm; Change in mean thickness, ONL-EZ central subfield [1]: −6.486 μm; Change in mean thickness, ONL-EZ mid subfield [1]: −4.522 μm; Change in mean thickness, ONL-RPE central subfield [1]: −7.877 μm; Change in mean thickness, ONL-RPE foveal center [1]: −7.626 μm; Change in mean thickness, ONL-RPE mid subfield [1]: −6.320 μm; Change in mean thickness, RPE-BM central subfield [1]: −0.118 μm; Change in mean thickness, RPE-BM foveal center [1]: −3.740 μm; Change in mean thickness, RPE-BM mid subfield [1]: 1.114 μm; Change in mean thickness, Total retinal central subfield [1]: −5.981 μm; Change in mean thickness, Total retinal foveal center [1]: −9.112 μm; Change in mean thickness, Total retinal mid subfield [1]: −4.046 μm; Change in volume, ELM-EZ central subfield [1]: −0.001 mm^3; Change in volume, ELM-EZ mid subfield [1]: 0.002 mm^3; Change in volume, ELM-RPE [1]: 0.009 mm^3; Change in volume, ELM-RPE central subfield [1]: −0.002 mm^3; Change in volume, ELM-RPE mid subfield [1]: −0.003 mm^3; Change in volume, EZ-RPE [1]: 0.005 mm^3; Change in volume, EZ-RPE central subfield [1]: −0.001 mm^3; Change in volume, EZ-RPE mid subfield [1]: −0.006 mm^3; Change in volume, ONL-EZ central subfield [1]: −0.005 mm^3; Change in volume, ONL-EZ mid subfield [1]: −0.014 mm^3; Change in volume, ONL-RPE [1]: −0.026 mm^3; Change in volume, ONL-RPE central subfield [1]: −0.006 mm^3; Change in volume, ONL-RPE mid subfield [1]: −0.020 mm^3; Change in volume, RPE-BM [1]: 0.037 mm^3; Change in volume, RPE-BM central subfield [1]: 0.000 mm^3; Change in volume, RPE-BM mid subfield [1]: 0.004 mm^3; Change in volume, Total retinal [1]: 0.091 mm^3; Change in volume, Total retinal central subfield [1]: −0.004 mm^3; Change in volume, Total retinal mid subfield [1]: −0.012 mm^3; Map coverage, 0 μm EZ [1]: 1.469%; Map coverage, 0 μm RPE-BM [1]: 1.465%; Map coverage, 10 μm EZ [1]: 1.332%; Map coverage, 20 μm EZ [1]: 1.288%; Map coverage, 50 μm RPE-BM [1]: −1.794%; Map coverage, 150 μm RPE-BM [1]: 2.143%; Map coverage, 250 μm RPE-BM [1]: 0.000%; Change in mean thickness, ELM-EZ central subfield [2]: −2.322 μm; Change in mean thickness, ELM-EZ mid subfield [2]: −0.967 μm; Change in mean thickness, ELM-RPE central subfield [2]: −3.102 μm; Change in mean thickness, ELM-RPE foveal center [2]: −0.000 μm and 0.000 μm; Change in mean thickness, ELM-RPE mid subfield [2]: −2.141 μm; Change in mean thickness, EZ-RPE central subfield [2]: −0.779 μm; Change in mean thickness, EZ-RPE foveal center [2]: 0.975 μm; Change in mean thickness, EZ-RPE mid subfield [2]: −1.174 μm; Change in mean thickness, Inner retina central subfield [2]: 5.864 μm; Change in mean thickness, Inner retina mid subfield [2]: 5.512 μm; Change in mean thickness, ONL-EZ central subfield [2]: −5.775 μm; Change in mean thickness, ONL-EZ mid subfield [2]: −5.386 μm; Change in mean thickness, ONL-RPE central subfield [2]: −6.555 μm; Change in mean thickness, ONL-RPE foveal center [2]: 0.650 μm; Change in mean thickness, ONL-RPE mid subfield [2]: −6.561 μm; Change in mean thickness, RPE-BM central subfield [2]: −8.238 μm; Change in mean thickness, RPE-BM foveal center [2]: −12.512 μm; Change in mean thickness, RPE-BM mid subfield [2]: −5.287 μm; Change in mean thickness, Total retinal central subfield [2]: −0.691 μm; Change in mean thickness, Total retinal foveal center [2]: 0.804 μm; Change in mean thickness, Total retinal mid subfield [2]: −1.049 μm; Change in volume, ELM-EZ central subfield [2]: −0.002 mm^3; Change in volume, ELM-EZ mid subfield [2]: −0.003 mm^3; Change in volume, ELM-RPE [2]: 0.086 mm^3; Change in volume, ELM-RPE central subfield [2]: −0.002 mm^3; Change in volume, ELM-RPE mid subfield [2]: −0.007 mm^3; Change in volume, EZ-RPE [2]: −0.059 mm^3; Change in volume, EZ-RPE central subfield [2]: −0.001 mm^3; Change in volume, EZ-RPE mid subfield [2]: −0.004 mm^3; Change in volume, ONL-EZ central subfield [2]: −0.004 mm^3; Change in volume, ONL-EZ mid subfield [2]: −0.017 mm^3; Change in volume, ONL-RPE [2]: 0.009 mm^3; Change in volume, ONL-RPE central subfield [2]: −0.005 mm^3; Change in volume, ONL-RPE mid subfield [2]: −0.021 mm^3; Change in volume, RPE-BM [2]: −0.049 mm^3; Change in volume, RPE-BM central subfield [2]: −0.007 mm^3; Change in volume, RPE-BM mid subfield [2]: −0.017 mm^3; Change in volume, Total retinal [2]: −0.188 mm^3; Change in volume, Total retinal central subfield [2]: 0.000 mm^3; Change in volume, Total retinal mid subfield [2]: −0.004 mm^3; Map coverage, 0 μm EZ [2]: 3.679%; Map coverage, 0 μm RPE-BM [2]: 1.099%; Map coverage, 10 μm EZ [2]: 3.699%; Map coverage, 20 μm EZ [2]: 3.574%; Map coverage, 50 μm RPE-BM [2]: −3.494%; Map coverage, 150 μm RPE-BM [2]: 3.335%; Map coverage, 250 μm RPE-BM [2]: −0.011%; Change in mean thickness, ELM-EZ central subfield [3]: −1.658 μm; Change in mean thickness, ELM-EZ mid subfield [3]: −1.049 μm; Change in mean thickness, ELM-RPE central subfield [3]: −3.461 μm; Change in mean thickness, ELM-RPE foveal center [3]: 2.925 μm
